Measurements: article PMC4697807, “Novel Zn^2+ Modulated GPR39 Receptor Agonists Do Not Drive Acute Insulin Secretion in Rodents” (PLoS ONE, 2015)
Read-outs that look alike come from different tables or passages of the source.

Columns and labels:
GPR39 (NIT-1 cells) = target: T1, GPR39 (NIT-1 cells) (Mus musculus, UniProt Q5U431); test: IP1 assay in NIT-1 cells endogenously expressing GPR39; type: cell-based; conditions: for Emax: read-out: Emax relative to the 100% efficacy reference AZ1395
T1 construct: NIT-1 cells endogenously expressing GPR39; endogenous in cells; host or cells: NIT-1 (ATCC CRL-2055)
T1 sequence (Q5U431 1-456): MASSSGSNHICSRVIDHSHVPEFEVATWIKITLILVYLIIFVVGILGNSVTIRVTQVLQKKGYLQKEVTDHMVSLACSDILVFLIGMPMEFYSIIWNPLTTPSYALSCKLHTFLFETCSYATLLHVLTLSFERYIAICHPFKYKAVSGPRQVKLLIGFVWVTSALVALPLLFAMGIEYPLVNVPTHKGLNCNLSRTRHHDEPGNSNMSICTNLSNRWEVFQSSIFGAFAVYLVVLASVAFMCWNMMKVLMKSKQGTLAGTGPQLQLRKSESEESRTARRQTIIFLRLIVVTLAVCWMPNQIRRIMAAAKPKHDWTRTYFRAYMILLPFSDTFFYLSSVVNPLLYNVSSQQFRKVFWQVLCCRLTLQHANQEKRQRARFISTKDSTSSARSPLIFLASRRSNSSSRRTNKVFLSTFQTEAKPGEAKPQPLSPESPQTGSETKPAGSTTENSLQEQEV
Source text: (§1) Full length human (AF034633), rat (DM091294) and mouse (BC085285) GPR39 (GeneArt–Life Technologies, Carlsbad, CA) were subcloned into the pIRESneo3 vector (Clontech, Mountain View, CA). The resulting expression vectors hGPR39-, rGPR39- and mGPR39-pIRESneo3 were transfected into HEK293s cells (ATCC CRL-1573) using Lipofectamine 2000 (Life Technologies). Individual clones were isolated using flow cytometry with a FACSVantage SE DIVA (Becton Dickinson, Franklin Lakes, NJ) and clones were chosen based on responses to Zn^2+ measured in a cAMP assay (see below). […] HEK293s-derived cell lines were cultured at 37°C, 10% CO2 and 95% humidity in DMEM supplemented with 10% FBS and 600 μg/ml Geneticin (Life Technologies). The mouse pancreas epithelial cell line NIT-1 (ATCC CRL-2055) with endogenous expression of GPR39 was cultured at 37°C, 5% CO2, and 95% humidity in Ham´s F12 (Life Technologies) supplemented with 10% FBS.
IP1 assays were performed using IP-One Tb kits (CisBio). IP1 production was detected by HTRF as described above. Buffers and reagents were according to manufacturers’ protocols except LiCl concentrations in stimulation buffer which were 50 mM in assays employing HEK293s-hGPR39 cells and 20 mM in assays using NIT-1 cells. For assays using HEK293s-hGPR39 cells, 12,500 cells per well were dispensed into small-volume 384-well plates (Greiner) and IP1 production was stimulated in the presence of compounds for 30 min at 37 °C in a total volume of 20 μl. For assays using NIT-1 cells, 25,000 cells per well were seeded into poly-D-lysine coated 384-well plates (Becton-Dickinson) and cultured in Ham´s F12 medium with 10% FBS. After 48 h, cells were washed with stimulation buffer and IP1 production stimulated in the presence of compounds for 45 min at 37 °C in a total volume of 60 μl.
(§2) Concentration response data were fitted with a four parameter logistic fit using Eq 1, y=A+((B−A)/1+((C/x)^D))) (1) where A is no activation, B is full activation, C is the EC50 and D is the Hill slope.

GPR39 = target: T2, GPR39 (Homo sapiens, UniProt O43194); test: cAMP assay (HTRF), HEK293s-hGPR39 cells; type: cell-based; design: Full length human (AF034633), rat (DM091294) and mouse (BC085285) GPR39; expressed in transfected cells; host or cells: HEK293s (ATCC CRL-1573), pIRESneo3 vector, selected clones; conditions: for Efficacy at 33 μM: AZ1395 100% reference
T2 sequence (O43194 1-453): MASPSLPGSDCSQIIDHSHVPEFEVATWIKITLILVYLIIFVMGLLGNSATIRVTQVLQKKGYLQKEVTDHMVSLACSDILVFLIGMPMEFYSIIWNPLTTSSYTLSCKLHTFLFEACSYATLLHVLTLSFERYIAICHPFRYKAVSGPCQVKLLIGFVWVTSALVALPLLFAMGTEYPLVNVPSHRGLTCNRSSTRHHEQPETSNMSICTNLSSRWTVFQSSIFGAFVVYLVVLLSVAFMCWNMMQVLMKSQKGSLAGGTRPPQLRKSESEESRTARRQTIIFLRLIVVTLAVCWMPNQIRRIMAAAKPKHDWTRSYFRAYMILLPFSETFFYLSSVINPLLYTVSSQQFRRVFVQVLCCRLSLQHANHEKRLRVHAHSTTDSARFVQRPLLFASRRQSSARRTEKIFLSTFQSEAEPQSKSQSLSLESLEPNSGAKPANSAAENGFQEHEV
Source text: as §1
Measurements of cAMP production were performed using homogeneous time resolved fluorescence (HTRF) cAMP dynamic kits (CisBio, Codolet, France). All buffers and reagents were according to manufacturer’s protocol. In short, 0.1 μl of compounds in DMSO were added to small-volume 384-well plates (Greiner, Frickenhausen, Germany). 12,000 (5 μl) cells in Hank’s balanced salt solution (HBSS) (Life Technologies) and 20 mM HEPES (pH7.4; Life Technologies) were added per well. The production of cAMP was stimulated for 75 min at 37°C by addition of 5 μl 3-isobutyl-1-methylxanthine (0.375 mM final concentration; Sigma-Aldrich, St Louis, MO) and ZnCl2 (0 to 30 μM; Sigma). The reaction was stopped by addition of 5 μl cAMP-d2 and 5 μl anti-cAMP cryptate. The cAMP production was detected by HTRF (λex = 340 nm, λem = 665 and 615 nm) using a Pherastar (BMG Labtech, Ortenberg, Germany).
as §2

[1] = absence (w/o) of Zn^2+, read-out: EC50
[2] = presence of 5 μM Zn^2+, read-out: EC50
[3] = presence of 5 μM Zn^2+, read-out: pEC50 ± SD (converted)
[4] = Zn^2+ by itself, read-out: EC50

SMILES	Efficacy at 33 μM (GPR39 (NIT-1 cells); absence (w/o) of Zn^2+) [%]	EC50 (GPR39 (NIT-1 cells); [1]) [µM]	Efficacy at 33 μM (GPR39 (NIT-1 cells); presence of 5 μM Zn^2+) [%]	EC50 (GPR39 (NIT-1 cells); [2]) [µM]	Efficacy at 33 μM (GPR39; absence (w/o) of Zn^2+) [%]	EC50 (GPR39; [1]) [µM]	EC50 (GPR39; [2]) [µM]	Emax (GPR39 (NIT-1 cells); presence of 5 μM Zn^2+) [%]	EC50 (GPR39 (NIT-1 cells); [3]) [µM]	EC50 (GPR39; [3]) [µM]	Efficacy at 33 μM (GPR39 (NIT-1 cells); Zn^2+ by itself) [%]	agonistic effects (GPR39 (NIT-1 cells); Zn^2+ by itself)	EC50 (GPR39 (NIT-1 cells); [4]) [µM]	pEC50 ± SD (GPR39; Zn^2+ by itself)	EC50 (GPR39; [4]) [µM]
N#Cc1ccc(OCCn2ccnc2)c(OCCn2ccnc2)c1 [AZ1395, 3,4-bis-(2-imidazol-1-ylethoxy)-benzonitrile]	0	> 33	100	> 33	81	> 33	0.49	–	–	–	–	–	–	–	–
Cc1nc2c(C(=O)O)cnn2c(O)c1Cc1ccc(Cl)cc1 [AZ4237, 6-[(4-chlorophenyl)methyl]-7-hydroxy-5-methyl-pyrazolo[1,5-a]pyrimidine-3-carboxylic acid]	8	> 33	–	–	49	> 33	–	50	0.24	0.389	–	–	–	–	–
Cc1nc(-c2nc3c(c(=O)[nH]2)CN(C(=O)c2cccc(Cl)c2F)CC3)cs1 [AZ7914, 6-(3-chloro-2-fluoro-benzoyl)-2-(2-methylthiazol-4-yl)-3,5,7,8-tetrahydropyrido-[4,3-d]pyrimidin-4-one]	9	> 33	–	0.65	21	> 33	–	47	–	2.29	–	–	–	–	–
[Zn+2] [Zn^2+]	–	–	–	–	–	–	–	–	–	–	0	no agonistic effects	> 33	(4.92 ± 0.13)	12
